Counter-ions that a name gives are not always drawn.
target: CK2A1 (CK2α/β) (Homo sapiens, UniProt P68400); experiment: CK2 kinase assay, CK2A1 (CK2α/β); type: biochemical; settings: Table A; read-out: CK2A1 (CK2α/β) (IC50)
Sequence (P68400 whole entry, species assumed): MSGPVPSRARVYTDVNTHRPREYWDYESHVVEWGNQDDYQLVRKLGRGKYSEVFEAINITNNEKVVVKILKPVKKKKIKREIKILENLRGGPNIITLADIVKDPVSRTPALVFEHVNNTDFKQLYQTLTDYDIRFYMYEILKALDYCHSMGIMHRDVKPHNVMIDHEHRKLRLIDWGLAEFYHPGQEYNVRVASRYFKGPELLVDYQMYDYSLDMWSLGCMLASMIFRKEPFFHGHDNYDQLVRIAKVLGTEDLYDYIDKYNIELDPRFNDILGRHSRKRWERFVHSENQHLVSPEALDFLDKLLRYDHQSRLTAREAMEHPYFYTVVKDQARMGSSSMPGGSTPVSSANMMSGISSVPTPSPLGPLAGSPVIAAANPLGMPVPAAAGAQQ
Sequence (P67870 whole entry partner, species assumed): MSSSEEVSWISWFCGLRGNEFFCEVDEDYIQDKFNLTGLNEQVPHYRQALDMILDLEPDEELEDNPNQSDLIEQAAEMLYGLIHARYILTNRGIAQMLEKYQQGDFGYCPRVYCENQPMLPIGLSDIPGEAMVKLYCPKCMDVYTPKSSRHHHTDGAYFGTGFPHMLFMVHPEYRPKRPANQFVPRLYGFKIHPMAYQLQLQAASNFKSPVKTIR

`CC(=O)N1CCC(C(F)c2cc(C#N)cc(Nc3nc(NC4CC4)c4ncc(C#N)n4n3)c2Cl)CC1` (stereo not shown) [Example 663, 2-((3-((1-acetylpiperidin-4-yl)fluoromethyl)-2-chloro-5-cyanophenyl)amino)-4-(cyclopropylamino)imidazo[2,1-f][1,2,4]triazine-7-carbonitrile] and `CN1CCC(c2cc(C#N)cc(Nc3nc(NC4CC4)c4ncc(C#N)n4n3)c2Cl)CC1` [Example 209, 2-(2-chloro-5-cyano-3-(1-methylpiperidin-4-yl)phenylamino)-4-(cyclopropylamino)imidazo[1,2,f][1,2,4]triazine-7-carbonitrile] are within 1.5-fold of each other in IC50: 0.77 nM for the first, 0.56 nM for the second.

`N#Cc1cc(Nc2nc(NC3CC3)c3ncc(C#N)n3n2)c(Cl)c(N2CCCOC2=O)c1` [Example 627, 2-((2-chloro-5-cyano-3-(2-oxo-1,3-oxazinan-3-yl)phenyl)amino)-4-(cyclopropylamino)imidazo[2,1-f][1,2,4]triazine-7-carbonitrile] and `CCN1CCN(c2cc(C#N)cc(Nc3nc(NC4CC4)c4ncc(C#N)n4n3)c2Cl)C(=O)C1` [Example 636, 2-((2-chloro-5-cyano-3-(4-ethyl-2-oxopiperazin-1-yl)phenyl)amino)-4-(cyclopropylamino)imidazo[2,1-f][1,2,4]triazine-7-carbonitrile] are within 1.5-fold of each other in IC50: 0.83 nM for the first, 1 nM for the second.

`N#Cc1cc(Nc2nc(NC3CC3)c3ncc(C#N)n3n2)c(Cl)c(N2CCN(C(=O)CCO)CC2)c1` [Example 90, 2-(2-chloro-5-cyano-3-(4-(3-hydroxypropanoyl)piperazin-1-yl)phenylamino)-4-(cyclopropylamino) imidazo[1,2-f][1,2,4] triazine-7-carbonitrile] and `N#Cc1cc(Nc2nc(NC3CC3)c3ncc(C#N)n3n2)c(Cl)c(N2CCN(C(=O)C3CC3)CC2)c1` [Example 74, 2-((2-chloro-5-cyano-3-(4-(cyclopropylcarbonyl)-1-piperazinyl)phenyl)amino)-4-(cyclopropylamino) imidazo[2,1-f][1,2,4] triazine-7-carbonitrile] are within 1.5-fold of each other in IC50: 0.53 nM for the first, 0.55 nM for the second.

`N#Cc1cc(Nc2nc(NC3CC3)c3ncc(C#N)n3n2)c(Cl)c(N2CCN(C3CN(C(=O)C4CCC(O)CC4)C3)CC2)c1` (stereo not shown) [Example 512, 2-[(2-chloro-5-cyano-3-{4-[1-(4-hydroxycyclohexane-carbonyl)azetidin-3-yl]piperazin-1-yl}phenyl)amino]-4-(cyclopropylamino)imidazo[2,1-f][1,2,4]triazine-7-carbonitrile] and `N#Cc1cc(Nc2nc(NC3CC3)c3ncc(C#N)n3n2)c(Cl)c(N2CCN([C@H]3CCC[C@@H]3O)CC2)c1` [Example 589, 2-[(2-chloro-5-cyano-3-{4-[(1S,2S)-2-hydroxycyclopentyl]piperazin-1-yl}phenyl)amino]-4-(cyclopropylamino)imidazo [2,1-f][1,2,4]triazine-7-carbonitrile] are within 1.5-fold of each other in IC50: 5.8 nM for the first, 7.56 nM for the second.

`CCNc1nc(Nc2cc(C#N)cc(N3CCN([C@H]4C[C@H](O)C4)CC3)c2Cl)nn2c(C#N)cnc12` [Example 613, 2-[(2-chloro-5-cyano-3-{4-[(1r,3r)-3-hydroxycyclobutyl]piperazin-1-yl}phenyl)amino]-4-(ethylamino)imidazo [2,1-f][1,2,4]triazine-7-carbonitrile] and `CCNc1nc(Nc2cc(C#N)cc(N3CCN(C4CN(CC(O)CF)C4)CC3)c2Cl)nn2c(C#N)cnc12` (stereo not shown) [Example 586, 2-[(2-chloro-5-cyano-3-{4-[1-(3-fluoro-2-hydroxypropyl)azetidin-3-yl]piperazin-1-yl}phenyl)amino]-4-(ethylamino)imidazo[2,1-f][1,2,4]triazine-7-carbonitrile] are within 1.5-fold of each other in IC50: 1.62 nM for the first, 1.58 nM for the second.

`CCNC(=O)N[C@H]1CN(c2cc(C#N)cc(Nc3nc(NC4CC4)c4ncc(C#N)n4n3)c2Cl)C[C@H]1OC` (racemic) [Example 32, (+/−) 1-((3S,4R)-1-(2-chloro-5-cyano-3-((7-cyano-4-(cyclopropylamino)imidazo [2,1-f][1,2,4]triazin-2-yl)amino)phenyl)-4-methoxy-3-pyrrolidinyl)-3-ethylurea] and `COC(=O)N[C@@H]1CCCN(c2cc(C#N)cc(Nc3nc(NC4CC4)c4ncc(C#N)n4n3)c2Cl)C1` [Example 41, methyl ((3R)-1-(2-chloro-5-cyano-3-((7-cyano-4-(cyclopropylamino)imidazo [2,1-f][1,2,4]triazin-2-yl)amino)phenyl)-3-piperidinyl)carbamate] are within 1.5-fold of each other in IC50: 0.8 nM for the first, 0.94 nM for the second.

First: CCNc1nc(Nc2cc(C#N)cc(N3CC[C@@H]4[C@@H](C3)OC(=O)N4[C@H]3CCOC3)c2Cl)nn2c(C#N)cnc12 (single isomer, unassigned) [Example 843]
Second: CCNc1nc(Nc2cc(C#N)cc(N3CCC4(CC3)CN(C)C(=O)O4)c2Cl)nn2c(C#N)cnc12 (racemic) [Example 781, (+/−)-2-((2-chloro-5-cyano-3-(3-methyl-2-oxo-1-oxa-3,8-diazaspiro[4.5]decan-8-yl)phenyl)amino)-4-(ethylamino)imidazo[2,1-f][1,2,4]triazine-7-carbonitrile]
The IC50 of the first is 3-fold higher: 2.16 nM for the first, 0.71 nM for the second. The second is the more potent here.

Going from `N#Cc1cc(Nc2nc(NC3CC3)c3ncc(C#N)n3n2)c(Cl)c(-c2cnn(CCN3CCOCC3)c2)c1` [Example 718, 2-[(2-chloro-5-cyano-3-{1-[2-(morpholin-4-yl)ethyl]-1H-pyrazol-4-yl}phenyl)amino]-4-(cyclopropylamino)imidazo [2,1-f][1,2,4]triazine-7-carbonitrile] to `COCCN1CCN(c2cc(C#N)cc(Nc3nc(NC4CC4)c4ncc(C#N)n4n3)c2Cl)CC1` [Example 56], the IC50 rises from 0.68 nM to 1.14 nM (1.7-fold). The first is the more potent here.

Compared with `N#Cc1cc(Nc2nc(NC3CC3)c3ncc(C#N)n3n2)c(Cl)c(N2CCC3C(CCN3[C@H]3COC[C@@H]3O)C2)c1` (mixture of isomers) [Example 451, (+/−)-2-((2-chloro-5-cyano-3-(1-((3S,4R)-4-hydroxytetrahydrofuran-3-yl)hexahydro-1H-pyrrolo[3,2-c]pyridin-5(6H)-yl)phenyl)amino)-4-(cyclopropylamino)imidazo[2,1-f][1,2,4]triazine-7-carbonitrile], `CC1(O)CN([C@@H]2CCN(c3cc(C#N)cc(Nc4nc(NC5CC5)c5ncc(C#N)n5n4)c3Cl)C2)C1` [Example 47, (R)-2-(2-chloro-5-cyano-3-(3-(3-hydroxy-3-methylazetidin-1-yl)pyrrolidin-1-yl)phenylamino)-4-(cyclopropylamino)imidazo [1,2-f][1,2,4]triazine-7-carbonitrile] is 3.2-fold lower in IC50: 5.52 nM for the first, 1.73 nM for the second. The second is the more potent here.

Compared with `CN(C)Cc1cc(C#N)cc(Nc2nc(NC3CC3)c3ncc(C#N)n3n2)c1Cl` [Example 667, 2-((2-chloro-5-cyano-3-((dimethylamino)methyl)phenyl)amino)-4-(cyclopropylamino)imidazo[2,1-f][1,2,4]triazine-7-carbonitrile], `N#Cc1cc(CNC2COC2)c(Cl)c(Nc2nc(NC3CC3)c3ncc(C#N)n3n2)c1` [Example 479, 2-[(2-chloro-5-cyano-3-{[(oxetan-3-yl)amino]methyl}phenyl)amino]-4-(cyclopropylamino)imidazo[2,1-f][1,2,4]triazine-7-carbonitrile] is 1.6-fold higher in IC50: 0.65 nM for the first, 1.07 nM for the second.

Going from `CC(C)(C)CC(=O)N1CCC(c2cc(C#N)cc(Nc3nc(NC4CC4)c4ncc(C#N)n4n3)c2Cl)CC1` [Example 235, 2-((2-chloro-5-cyano-3-(1-(3,3-dimethylbutanoyl)-4-piperidinyl)phenyl)amino)-4-(cyclopropylamino)imidazo[2,1-f][1,2,4]triazine-7-carbonitrile] to `CC1(CN2CCC(c3cc(C#N)cc(Nc4nc(NC5CC5)c5ncc(C#N)n5n4)c3Cl)CC2)COC1` [Example 225, 2-((2-chloro-5-cyano-3-(1-((3-methyl-3-oxetanyl)methyl)-4-piperidinyl)phenyl)amino)-4-(cyclopropylamino)imidazo[2,1-f][1,2,4]triazine-7-carbonitrile], the IC50 falls from 3.86 nM to 2 nM (1.9-fold). The second is the more potent here.

Going from `CC(C)(O)[C@H](F)CNC1CCN(c2cc(C#N)cc(Nc3nc(NC4CC4)c4ncc(C#N)n4n3)c2Cl)CC1` [Example 137, 2-((2-chloro-5-cyano-3-(4-(((2R)-2-fluoro-3-hydroxy-3-methylbutyl)amino)-1-piperidinyI)phenyl)amino)-4-(cyclopropylamino)imidazo [2,1-f][1,2,4]triazine-7-carbonitrile] to `CC1(O)CN([C@@H]2CCCN(c3cc(C#N)cc(Nc4nc(NC5CC5)c5ncc(C#N)n5n4)c3Cl)C2)C1` [Example 45, 2-((2-chloro-5-cyano-3-((3R)-3-(3-hydroxy-3-methyl-1-azetidinyl)-1-piperidinyl)phenyl)amino)-4-(cyclopropylamino)imidazo [2,1-f][1,2,4]triazine-7-carbonitrile], the IC50 falls from 3.06 nM to 0.96 nM (3.2-fold).

First: COC(=O)N[C@H]1CCN(c2cc(C#N)cc(Nc3nc(NC4CC4)c4ncc(C#N)n4n3)c2Cl)C[C@H]1NC1(C)COC1 [Example 754, methyl N-[(3R,4S)-1-(2-chloro-5-cyano-3-{[7-cyano-4-(cyclopropylamino)imidazo [2,1-f][1,2,4]triazin-2-yl]amino}phenyl)-3-[(3-methyloxetan-3-yl)amino]piperidin-4-yl]carbamate]
Second: CCNc1nc(Nc2cc(C#N)cc(N3CC[C@@H](NC(=O)OC)[C@H](OC(=O)C[C@@H](N)CC(C)C)C3)c2Cl)nn2c(C#N)cnc12 [Example 819, (S)-(3R,4R)-1-(2-chloro-5-cyano-3-((7-cyano-4-(ethylamino)imidazo[2,1-f][1,2,4]triazin-2-yl)amino)phenyl)-4-((methoxycarbonyl)amino)piperidin-3-yl 3-amino-5-methylhexanoate hydrochloride]
The IC50 of the first is 2-fold lower: 2.93 nM for the first, 5.81 nM for the second. The first is the more potent here.

`CC(O)CN1CCN(c2cc(C#N)cc(Nc3nc(NC4CC4)c4ncc(C#N)n4n3)c2Cl)C(=O)C1` (racemic) [Example 624, (+/−)-2-((2-chloro-5-cyano-3-(4-(2-hydroxypropyl)-2-oxopiperazin-1-yl)phenyl)amino)-4-(cyclopropylamino)imidazo[2,1-f][1,2,4]triazine-7-carbonitrile] and `CC(CCc1cc(Cl)c(Nc2nc(NC3CC3)c3ncc(C#N)n3n2)cc1C#N)N1CCOCC1` (stereo not shown) [Example 720, 2-((2-chloro-5-cyano-4-(3-morpholinobutyl)phenyl)amino)-4-(cyclopropylamino)imidazo[2,1-f][1,2,4]triazine-7-carbonitrile] are within 1.5-fold of each other in IC50: 2.94 nM for the first, 2.48 nM for the second.
